Among the data in patent US7473688B2, “Indolobenzazepine HCV NS5B inhibitors” (Bristol-Myers Squibb Company, priority 2005, dated 2009) are EC50 and IC50 values, retold here.

The subject of one assay is HCV replicon. The assay can be described thus: HCV replicon FRET assay. It is filed as cell-based. The conditions noted are these: Hepatitis C virus, FRET assay, read-out: EC50*. The essentials:
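HCV replicon cells, with or without Renilla luciferase reporter, incubated with titrated compounds at 37 °C; Alamar blue read for cytotoxicity. NS3 protease activity read from lysates with 20 μM EDANS/DABCYL FRET peptide (340/490 nm, kinetic), or by Dual-Glo luciferase. Background from highest protease-inhibitor wells; EC50 = 50% signal reduction.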
A general note: In antiviral work, replicon cells carry a viral genome segment that copies itself.

For the next assay, the target named is T1, HCV NS5B (Hepatitis C virus genotype 1b, UniProt Q9WMX2).
T1 construct: The protein was expressed with an 18 amino acid C-terminal truncation to enhance the solubility; made in house; host or cells: E. coli BL21 (DE3), pET21a
T1 sequence (Q9WMX2 2420-2992): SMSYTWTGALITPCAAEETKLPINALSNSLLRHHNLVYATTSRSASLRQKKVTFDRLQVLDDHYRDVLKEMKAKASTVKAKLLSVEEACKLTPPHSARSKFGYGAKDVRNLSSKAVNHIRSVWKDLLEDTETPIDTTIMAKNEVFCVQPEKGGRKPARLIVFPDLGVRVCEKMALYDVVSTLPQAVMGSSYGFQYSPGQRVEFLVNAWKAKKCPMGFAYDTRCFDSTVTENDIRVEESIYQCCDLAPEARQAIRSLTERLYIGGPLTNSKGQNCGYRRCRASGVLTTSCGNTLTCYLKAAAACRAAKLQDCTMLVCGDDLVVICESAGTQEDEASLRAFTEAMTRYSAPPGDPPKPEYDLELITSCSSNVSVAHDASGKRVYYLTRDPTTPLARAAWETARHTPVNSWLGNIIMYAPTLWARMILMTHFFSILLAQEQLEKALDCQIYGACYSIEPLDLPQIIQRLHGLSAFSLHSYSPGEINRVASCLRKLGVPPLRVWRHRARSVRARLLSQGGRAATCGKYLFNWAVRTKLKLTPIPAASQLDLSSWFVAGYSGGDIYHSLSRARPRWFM
The assay can be described thus: HCV NS5B RdRp enzyme assay (preincubation protocol). It is filed as biochemical. In short, it runs like this:
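Preincubation format: enzyme (14 nM, genotype 1b, 18-residue C-terminal truncation) meets diluted compound first; reaction started with bead-bound biotinylated dT12 primer, polyA template 0.2 nM and 0.29 μM 3H-UTP. Run 4 h, 30 °C in Hepes pH 7.5; scintillation proximity signal; IC50 fitted from seven inhibitor levels.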

Read-outs that look alike come from different tables or passages of the source. Some results are limits rather than exact numbers.

For orientation: EC50 means the midpoint of the concentration-response curve. Usually IC50 stands for the midpoint of a concentration-inhibition curve. `COc1ccc2c(c1)C=C(C(=O)N1C[C@@H](C)N(CC3CC3)[C@@H](C)C1)Cn1c-2c(C2CCCCC2)c2ccc(C(=O)NS(=O)(=O)N(C)C)cc21`: the EC50 in the assay with HCV replicon (Table 1b) is 30 to 1000 nM. Moreover, the IC50 at HCV NS5B (Table 1b, read-out: IC50*) lay in the range of 20 to 1000 nM.
The corresponding values for `COc1ccc2c(c1)C[C@H](NC(=O)N(C)CC(=O)N(C)C)Cn1c-2c(C2CCCCC2)c2ccc(C(=O)NS(=O)(=O)N(C)C)cc21` are 30 to 1000 nM and 20 to 1000 nM.
As to `COc1ccc2c(c1)C[C@@H](NC(=O)N(C)CC(=O)N(C)C)Cn1c-2c(C2CCCCC2)c2ccc(C(=O)NS(=O)(=O)N(C)C)cc21`, the EC50 in the assay with HCV replicon (Table 1b) fell in the range of 30 to 1000 nM. The IC50 on HCV NS5B (Table 1b, read-out: IC50*) was 20 to 1000 nM.
On to `COc1ccc2c(c1)CC(C(=O)N1CC(CO)C1)Cn1c-2c(C2CCCCC2)c2ccc(C(=O)NS(=O)(=O)N(C)C)cc21` (stereo not shown), for which the concentration giving a half-maximal response (EC50) with HCV replicon (Table 1b) lay within 30 to 1000 nM. Also, the IC50 at HCV NS5B (Table 1b, read-out: IC50*) fell in the range of 20 to 1000 nM.
On to `COc1ccc2c(c1)C=C(C(=O)N1CC(N(C)C)C1)Cn1c-2c(C2CCCCC2)c2ccc(C(=O)NS(=O)(=O)N(C)C)cc21`, for which, in the assay on HCV replicon (Table 1b), the EC50 was in the range of 30 to 1000 nM. For the same molecule, the IC50 at HCV NS5B (Table 1b, read-out: IC50*) was in the range of 20 to 1000 nM.
`COc1ccc2c(c1)C=C(C(=O)N(C)Cc1ccccn1)Cn1c-2c(C2CCCCC2)c2ccc(C(=O)NS(=O)(=O)N(C)C)cc21`: the EC50 with HCV replicon (Table 1b) lay within 30 to 1000 nM. In addition, the IC50 on HCV NS5B (Table 1b, read-out: IC50*) was 20 to 1000 nM.
For `COc1ccc2c(c1)C=C(C(=O)N1CCN(CCOCCO)CC1)Cn1c-2c(C2CCCCC2)c2ccc(C(=O)NS(=O)(=O)N(C)C)cc21`, in the assay with HCV replicon (Table 1b), the EC50 fell in the range of 30 to 1000 nM. Further, the IC50 at HCV NS5B (Table 1b, read-out: IC50*) is 20 to 1000 nM.
On the same counts, the results for `COc1ccc2c(c1)CC(C(=O)N1CC(N(C)C)C1)Cn1c-2c(C2CCCCC2)c2ccc(C(=O)NS(=O)(=O)N(C)C)cc21` (stereo not shown) are 30 to 1000 nM and 20 to 1000 nM.
Regarding `COc1ccc2c(c1)C=C(C(=O)O)Cn1c-2c(C2CCCCC2)c2ccc(C(=O)NS(=O)(=O)N3CCN(C(C)=O)CC3)cc21`, in the assay on HCV replicon (Table 1b), the EC50 was over 10000 nM. For the same molecule, the concentration for half-maximal inhibition (IC50) on HCV NS5B (Table 1b, read-out: IC50*) is 20 to 1000 nM.
Turning to `COc1ccc2c(c1)C=C(C(=O)N[C@@H]1C3CCC(C)([C@@H]1O)C3(C)C)Cn1c-2c(C2CCCCC2)c2ccc(C(=O)NS(=O)(=O)N(C)C)cc21` (stereo partly shown), the EC50 with HCV replicon (Table 1b) fell in the range of 30 to 1000 nM. For the same molecule, the IC50 on HCV NS5B (Table 1b, read-out: IC50*) fell in the range of 20 to 1000 nM.
Regarding `COc1ccc2c(c1)C=C(C(=O)N1CCN(c3ccccn3)CC1)Cn1c-2c(C2CCCCC2)c2ccc(C(=O)NS(=O)(=O)N(C)C)cc21`, the half-maximal effective concentration (EC50) in the assay with HCV replicon (Table 1b) is 30 to 1000 nM. For the same molecule, the IC50 on HCV NS5B (Table 1b, read-out: IC50*) is 20 to 1000 nM.
For the molecule `COc1ccc2c(c1)C=C(C(=O)N1CCN(c3ncccn3)CC1)Cn1c-2c(C2CCCCC2)c2ccc(C(=O)NS(=O)(=O)N(C)C)cc21`, in the assay on HCV replicon (Table 1b), the EC50 was 30 to 1000 nM. For the same molecule, the IC50 at HCV NS5B (Table 1b, read-out: IC50*) is under 20 nM.
For the molecule `COc1ccc2c(c1)CC(C(=O)N1CCN(CCOCCO)CC1)Cn1c-2c(C2CCCCC2)c2ccc(C(=O)NS(=O)(=O)N(C)C)cc21` (stereo not shown), in the assay with HCV replicon (Table 1b), the EC50 was 30 to 1000 nM. For the same molecule, the half-inhibitory concentration (IC50) on HCV NS5B (Table 1b, read-out: IC50*) was in the range of 20 to 1000 nM.
Turning to `COc1ccc2c(c1)C=C(C(=O)N1CCN(C(=O)C(C)(C)O)CC1)Cn1c-2c(C2CCCCC2)c2ccc(C(=O)NS(=O)(=O)N(C)C)cc21`, the EC50 in the assay with HCV replicon (Table 1b) is 30 to 1000 nM. Moreover, the half-maximal inhibitory concentration (IC50) on HCV NS5B (Table 1b, read-out: IC50*) was in the range of 20 to 1000 nM.
Consider `CON(C)S(=O)(=O)NC(=O)c1ccc2c(C3CCCCC3)c3n(c2c1)CC(C(=O)N1CCOCC1)=Cc1ccccc1-3` [drawing 100], for which the EC50 in the assay on HCV replicon (Table 1) is 70 to 1000 nM. Also, the concentration for half-maximal inhibition (IC50) on HCV NS5B (Table 1, read-out: IC50*) lay in the range of 10 to 1000 nM.
The corresponding values for `COc1ccc2c(c1)C=C(C(=O)N1CCOCC1)Cn1c-2c(C2CCCCC2)c2ccc(C(=O)NS(=O)(=O)N3CCOCC3)cc21` [drawing 102] are 70 to 1000 nM and 10 to 1000 nM.
`C[C@@H]1CN(CCNC(=O)C2=Cc3ccccc3-c3c(C4CCCCC4)c4ccc(C(=O)NS(=O)(=O)N(C)C)cc4n3C2)C[C@H](C)O1` [drawing 130]: in the assay with HCV replicon (Table 1), the 50% effective concentration (EC50) is 70 to 1000 nM. Besides, the IC50 on HCV NS5B (Table 1, read-out: IC50*) lay in the range of 10 to 1000 nM.
`CN(C)S(=O)(=O)NC(=O)c1ccc2c(C3CCCCC3)c3n(c2c1)CC(C(=O)N1CCC(N2CCOCC2)CC1)=Cc1cc(OCc2ccccc2)ccc1-3` [drawing 135]: the EC50 in the assay with HCV replicon (Table 1) was 70 to 1000 nM. Also, the IC50 at HCV NS5B (Table 1, read-out: IC50*) fell in the range of 10 to 1000 nM.
The corresponding values for `CN(C)S(=O)(=O)NC(=O)c1ccc2c(C3CCCCC3)c3n(c2c1)CC(C(=O)N1CCCC(=O)N1)=Cc1ccccc1-3` [drawing 138] are 70 to 1000 nM and 10 to 1000 nM.
As to `CN(C)S(=O)(=O)NC(=O)c1ccc2c(C3CCCCC3)c3n(c2c1)CC(NC(=O)N1CCOCC1)Cc1ccccc1-3` (stereo not shown) [drawing 141], the half-maximal effective concentration (EC50) in the assay with HCV replicon (Table 1) lay in the range of 70 to 1000 nM. The IC50 on HCV NS5B (Table 1, read-out: IC50*) lay in the range of 10 to 1000 nM.
As for `C[C@@H]1CN(C(=O)NC2Cc3ccccc3-c3c(C4CCCCC4)c4ccc(C(=O)O)cc4n3C2)C[C@H](C)O1` (stereo partly shown) [drawing 143], in the assay on HCV replicon (Table 1), the EC50 lay in the range of 70 to 1000 nM. In addition, the IC50 at HCV NS5B (Table 1, read-out: IC50*) was 10 to 1000 nM.
Regarding `CC(=O)NN(C)C(=O)C1=Cc2ccccc2-c2c(C3CCCCC3)c3ccc(C(=O)O)cc3n2C1` [drawing 154], the EC50 with HCV replicon (Table 1) lay within 1000 to 10000 nM. Moreover, on HCV NS5B (Table 1, read-out: IC50*), the concentration for half-maximal inhibition (IC50) lay within 10 to 1000 nM.
Turning to `COc1ccc2c(c1)C=C(C(=O)N(C)CC(=O)N(C)C)Cn1c-2c(C2CCCCC2)c2ccc(C(=O)NS(=O)(=O)N(C)C)cc21` [drawing 162], in the assay on HCV replicon (Table 1), the EC50 lay in the range of 70 to 1000 nM. Also, at HCV NS5B (Table 1, read-out: IC50*), the half-maximal inhibitory concentration (IC50) was 10 to 1000 nM.
In the case of `CN(C)S(=O)(=O)NC(=O)c1ccc2c(C3CCCCC3)c3n(c2c1)CC(C(=O)N1CCC(F)CC1)=Cc1ccccc1-3` [drawing 196], the EC50 in the assay on HCV replicon (Table 1) was in the range of 70 to 1000 nM. The 50% inhibitory concentration (IC50) at HCV NS5B (Table 1, read-out: IC50*) lay within 10 to 1000 nM.
Regarding `O=C(NCc1cnn[nH]1)c1ccc2c(C3CCCCC3)c3n(c2c1)CC(C(=O)N1CCC(N2CCOCC2)CC1)=Cc1ccccc1-3` [drawing 203], in the assay with HCV replicon (Table 1), the 50% effective concentration (EC50) was 1000 to 10000 nM. Besides, on HCV NS5B (Table 1, read-out: IC50*), the IC50 is 10 to 1000 nM.
For the molecule `CN(C)S(=O)(=O)NC(=O)c1ccc2c(C3CCCCC3)c3n(c2c1)CC(C(=O)N1CCCC(=O)N1)=Cc1ccccc1-3` [drawing 236], the EC50 in the assay on HCV replicon (Table 1a) is 30 to 1000 nM. In addition, the 50% inhibitory concentration (IC50) at HCV NS5B (Table 1a, read-out: IC50*) fell in the range of 10 to 1000 nM.
With `COc1ccc2c(c1)C=C(C(=O)N1CCOCC1)Cn1c-2c(C2CCCCC2)c2ccc(C(=O)NS(=O)(=O)N3CCOCC3)cc21` [drawing 237], the half-maximal effective concentration (EC50) in the assay with HCV replicon (Table 1a) fell in the range of 30 to 1000 nM. Moreover, the IC50 at HCV NS5B (Table 1a, read-out: IC50*) lay within 10 to 1000 nM.
On the same counts, the results for `COc1ccc2c(c1)C=C(C(=O)N(C)CC(=O)N(C)C)Cn1c-2c(C2CCCCC2)c2ccc(C(=O)NS(=O)(=O)N(C)C)cc21` [drawing 238] are 30 to 1000 nM and 10 to 1000 nM.
On the same counts, the results for `COc1ccc2c(c1)C=C(C(=O)N1CCN(CC(F)(F)F)CC1)Cn1c-2c(C2CCCCC2)c2ccc(C(=O)NS(=O)(=O)N(C)C)cc21` [drawing 390] are 30 to 1000 nM and 10 to 1000 nM.
On the same counts, the results for `O=C(NS(=O)(=O)N1CCN(CC(F)(F)F)CC1)c1ccc2c(C3CCCCC3)c3n(c2c1)CC(C(=O)N1CCOCC1)=Cc1ccccc1-3` [drawing 391] are 30 to 1000 nM and 10 to 1000 nM.
With `COc1ccc2c(c1)C=C(C(=O)N1CCN(CC(F)(F)F)CC1)Cn1c-2c(C2CCCCC2)c2ccc(C(=O)NS(=O)(=O)N(C)C)cc21` [drawing 393], the concentration for a half-maximal effect (EC50) in the assay with HCV replicon (Table 1b) was 30 to 1000 nM. For the same molecule, the half-inhibitory concentration (IC50) on HCV NS5B (Table 1b, read-out: IC50*) lay within 20 to 1000 nM.
Take `O=C(NS(=O)(=O)N1CCN(CC(F)(F)F)CC1)c1ccc2c(C3CCCCC3)c3n(c2c1)CC(C(=O)N1CCOCC1)=Cc1ccccc1-3` [drawing 395]: in the assay with HCV replicon (Table 1b), the EC50 was 30 to 1000 nM. Also, the IC50 at HCV NS5B (Table 1b, read-out: IC50*) was in the range of 20 to 1000 nM.
